This experiment deals with human ovulatory cervical mucus. The experiment in a line: Sperm penetration through human cervical ovulatory mucus (capillary assay, phase contrast microscopy). The note with it: PLL 5 mg/mL in 32.5 mM lactic acid; 30 minutes after exposure to undiluted sperm; vs lactic acid solution alone or untreated. In kind it is cell-based. The method, then:
All chitosans were dissolved in a 100 mM or a 32.5 mM lactic acid solution at a concentration of 0.5% (w/v chitosan) and adjusted to pH 5.5 (pH±0.02) by the use of 0.1 or 1 M hydrochloric acid (HCl, Merck KgaA, Germany), and 0.1 or 1 M sodium hydroxide (NaOH, CPAchem Ltd., Bulgaria) or 50% NaOH (Sigma-Aldrich, USA).
Semen samples of patients and volunteers collected at the Andrology, Sexual Medicine, Transmedicine, clinic (ANOVA, Karolinska University Hospital, Sweden) were run through standard semen kinematic analyses and sperm penetration assays no later than 3 h after collection. Data were obtained for the collection time, abstinence time, and semen volume.
Semen was gently liquefied for 30 min on a rocker in an incubation chamber heated up to 37° C., after complete collection of ejaculates by masturbation. The viscosity of semen was determined visually and by pipetting. Semen was microscopically analysed by pipetting 6 μl of specimen in pre-warmed Leja® (Netherland) counting chamber slides (20 micron). Subsequently, specimens were assessed via clinical ECLIPSE 50i microscope (Nikon Instruments, Japan) equipped with stage heater MS 100 (37° C., Linkam Scientific Instruments, UK), 10× objective (Ph1) and 0.5× charge coupled device camera UI-1540LE-M-HQ (IDS Imaging Development Systems GmbH, Germany) with total magnification of 5×. […]

This note sets out measurements from patent US20240180956A1, “A VAGINAL CONTRACEPTIVE COMPOSITION FOR REINFORCEMENT OF THE CERVICAL MUCUS BARRIER PROPERTIES” (CIRQLE BIOMEDICAL CONTRACEPTION APS, priority 2021, published 2024).

poly-L-lysine [PLL]: the “sperm detected throughout the capillary filled with ovulatory cervical mucus” value is “Less sperm was detected”.
